Experimental data from article PMC11860126, “X-Ray Irradiation Induces Oxidative Stress and Upregulates Intestinal Nrf2-Mrp2 Pathway, Leading to Decreased Intestinal Absorption of Valsartan” (Pharmaceutics, 2025).
Read-outs that look alike come from different tables or passages of the source.

Experiments:
[1] = design: method as in PMID 28507434; settings: cited from earlier work
[2] = cited from earlier work
[3] = In vivo pharmacokinetics of valsartan in rat plasma, with or without abdominal X-ray irradiation; design: species or system Sprague Dawley (SD) rats; settings: for AUC(0-inf) / Cmax / AUC(0-t) / MRT last / Tmax / half-life: male, Sprague-Dawley, rat, plasma, po, 10 mg/kg; for AUC(0-t): read-out: AUC0–24h; for MRT last: read-out: MRT0–24h; for half-life / t1/2: valsartan 10 mg/kg by gavage, Mean ± SD, n = 6
Procedure: Valsartan was administered by gavage (10 mg/kg) after forming a homogeneous suspension (2 mg/mL) with 1% CMC-Na by grinding and stirring. Before and after administration (0.083, 0.25, 0.5, 1, 2, 4, 6, 8, 12, and 24 h), the rats in group A (n = 6) and group B (n = 6) were anesthetized with isoflurane. Blood samples were collected by the orbital blood sampling method, and whole blood was collected by blood collection tubes coated with heparin sodium. Plasma samples were obtained by centrifugation at 16,260× g for 10 min. Quantitative analysis of LC-MS/MS results was performed using Analyst 1.6.3 program. The pharmacokinetic parameters were calculated using the WinNonlin 8.3 program. SPSS Statistic 20.0 software was used for statistical analysis. One-way ANOVA was used for comparison among multiple groups, and p < 0.05 was considered statistically significant. GraphPad Prism 8.0.2 software was used for generating figures.

[4] = VAL bile secretion assay in bile duct cannulated rats; type: in vivo, Sprague Dawley (SD) rats; settings: 10 mg/kg by gavage
Text: For the VAL bile secretion assay, six rats in each group, A and B, underwent bile duct cannulation prior to administration. After anesthesia, the abdominal cavity of the rats was opened, followed by separation and ligation of the distal end of the common bile duct. A small opening was made at the front end of the ligation to insert a catheter, which was then ligated and fixed before suturing the abdominal cavity. Bile was collected through a catheter. The rats were maintained under anesthesia with intraperitoneal injection of normal saline and glucose to ensure stable vital signs. Following surgery, valsartan (10 mg/kg) was administered via gavage, and bile samples were collected at different time points post-administration. The collected bile samples were mixed with 50% methanol–water (ratio 1:9), centrifuged to obtain the supernatant for analysis.

[5] = Ex vivo inverted intestinal sac absorption study; type: in vitro ADME, Sprague Dawley (SD) rats; settings: for concentration of valsartan in the intestinal sac at the final time point: KRB buffer 37 °C containing 10 mM VAL, n = 6
Procedure: Six rats in groups A and B were anesthetized with isoflurane, followed by the opening of the abdominal cavity to separate a 10 cm segment of the jejunum. The distal end of the jejunal segment was ligated in Krebs–Ringer Solution (KRB), and the resulting intestinal sac was turned inside out from the proximal end to form an inverted intestinal sac. Subsequently, 1 mL of KRB buffer at 37 °C was added to the inverted intestinal sac, which was then equilibrated in oxygen-saturated KRB buffer (37 °C) for 5 min. The flipped intestinal sac was transferred to oxygen-saturated KRB buffer (37 °C) containing 10 mM VAL, initiating the timing process. At different time points, 50 μL of solution from the flipped intestinal sac was aspirated and supplemented with an equal volume (50 μL) of blank KRB buffer.

[6] = VAL urinary and fecal excretion assay (metabolic cages); settings: rats, 10 mg/kg by gavage
Procedure: Male Sprague Dawley (SD) rats (weight 200 ± 20 g) were purchased from Beijing Vital River Laboratory Animal Co., LTD. […] The rats were fed a maintenance diet and had free access to water. All rats were adaptively fed for three days before the experiment and randomly divided into a control group (A) and irradiation group (B). There were 6 rats in group A and B in each study. […] The samples collected were processed and then stored at −80 °C until analysis.
For the VAL urinary and fecal excretion assay, six rats in each group, A and B, were randomly assigned to metabolic cages and administered valsartan (10 mg/kg) via gavage. […] The resulting supernatant was collected as the analytical samples.
The excretion of valsartan was calculated by the concentration and sample volume (or weight), and the fractional excretion of valsartan and the cumulative excretion fraction of valsartan in each time period were obtained through comparison with the corresponding dose administered to the rat.

[7] = design: method as in PMID 28438473, PMID 22204725, PMID 27749456; settings: clinical studies; cited from earlier work
[8] = 10 mg/kg by gavage, Control group
[9] = IR-5 Gy vs control, 10 mg/kg by gavage, p < 0.05
[10] = IR-5 Gy (abdominal X-ray 24 h before)

CCCCC(=O)N(Cc1ccc(-c2ccccc2-c2nnn[nH]2)cc1)[C@H](C(=O)O)C(C)C [valsartan, Valsartan]
bioavailability [1]: 23%
fraction absorbed into the liver, secreted into the bile and passed into the feces along with unabsorbed valsartan [2]: > 80%
CL [3, 8]: 20 ± 5.87 mL/min/kg
Vd [3, 8]: 6.254 ± 2.349 L/kg
CL ([3]; 10 mg/kg by gavage, IR-5 Gy): 35.33 ± 18.5 mL/min/kg
Vd ([3]; 10 mg/kg by gavage, IR-5 Gy): 14.668 ± 9.456 L/kg
prolongation of plasma half-life (t1/2) in the IR group ([3]; IR-5 Gy vs control, 10 mg/kg by gavage): 41%
decrease of AUC0–24h in the IR group [3, 9]: 37%
decrease of Cmax in the IR group [3, 9]: 52%
AUC(0-inf) [3, 8]: 8810 ± 2010 ng·h/mL
Cmax [3, 8]: 4430 ± 1260 ng/mL
AUC(0-t) [3, 8]: 8460 ± 1840 ng·h/mL
MRT last [3, 8]: 3.84 ± 0.724 h
Tmax ([3]; 10 mg/kg by gavage, Control group, read-out: Tmax): 0.25 h
Tmax ([3]; 10 mg/kg by gavage, Figure 1, read-out: time of peak plasma concentration): ~0.25 h
AUC(0-inf) ([3]; 10 mg/kg by gavage, IR-5 Gy): 5470 ± 1790 ng·h/mL
Cmax ([3]; 10 mg/kg by gavage, IR-5 Gy): 2130 ± 878 ng/mL
AUC(0-t) ([3]; 10 mg/kg by gavage, IR-5 Gy): 5270 ± 1830 ng·h/mL
MRT last ([3]; 10 mg/kg by gavage, IR-5 Gy): 4.52 ± 1.63 h
Tmax ([3]; 10 mg/kg by gavage, IR-5 Gy, read-out: Tmax): 0.222 ± 0.068 h
half-life ([3]; Control group): 3.57 h
half-life [3, 10]: 5.03 h
t1/2 ([3]; Control group): 3.568 ± 0.411 h
t1/2 [3, 10]: 5.032 ± 2.656 h
cumulative fractional bile excretion ([4]; IR group, 15 h): 10.83 % of the dose
cumulative fractional bile excretion ([4]; IR group, 18 h): 11.52 % of the dose
cumulative fractional bile excretion ([4]; IR group, 24 h): 12.67 % of the dose
cumulative fractional bile excretion ([4]; control group, 15 h): 22.89 % of the dose
cumulative fractional bile excretion ([4]; control group, 18 h): 26.24 % of the dose
cumulative fractional bile excretion ([4]; control group, 24 h): 31.26 % of the dose
concentration of valsartan in the intestinal sac at the final time point ([5]; IR group): 127 ± 32.94 ng/mL
concentration of valsartan in the intestinal sac at the final time point ([5]; control group): 205.6 ± 51.72 ng/mL
reduction of valsartan concentration in the intestinal sac, IR vs control ([5]; final time point): 38%
amount excreted in the urine ([6]; Figure 2D): very small amount
cumulative excretion in feces ([6]; group not stated): 83%

bevacizumab
incidence of hypertension associated with treatment [7]: 26% to 55
